From patent publication US20240293432A1, “Use of Cannabidiol to Improve Rehabilitation in Lung Cancer” (priority 2023, published 2024)
Read-outs that look alike come from different tables or passages of the source.

Experiments:
[1] = tested on: H1975 lung cancer cell line; experiment: CellTiter Glo viability assay, drugs alone or combined with CBD; assay type: cell-based
Description: Viability after treatment with each cancer drug was compared with and without CBD (*=p<0.05 Student's t test).
Effects of CBD combination with Standard of Care drugs in lung cancer cells: A study was conducted which screened cannabinoids, including CBD, for their ability to synergize with FDA-approved anti-cancer drugs to reduce the viability of cancer cells in vitro. […] IC50 was calculated using GraphPad Prism (dose-response inhibition), and Combination Index (CI) was calculated using CompuSyn software. […] Because the major driver mutation in this cell line is known (KRAS), the study evaluated potential drug synergy between CBD and the G12D specific KRAS inhibitor MTRX1133.

[2] = tested on: lung tumor-bearing mice (luciferase expressing LLC cells); experiment: Open field test, elevated plus maze and tumor growth in mice with orthotopic LLC lung tumors; assay type: in vivo, C57BL/6 mice
Description: FIGS. 5A-5C depict the effects of CBD on behavior in lung tumor bearing mice. […] D-Luciferin (150 mg/kg) was delivered by IP injection 10 minutes prior to imaging. Vehicle or CBD (25 mg/kg) was delivered by oral gavage every alternate day and Open Field (FIG. 5B) and EPM (FIG. 5C) tests were performed. Significant differences between means were determined by ANOVA with Holm Sidack post hoc test.
Effects of CBD on the behavior of lung tumor-bearing mice: To make a preliminary assessment of the effects of CBD on the behavior of lung tumor-bearing mice, a study was conducted which used the open field test and EPM to determine if behavioral deficiencies observed in FIGS. 4A-4C could be rescued. Lung tumors were initiated in C57BL/6 mice via intratracheal instillation of 5×10^5 luciferase expressing LLC cells (Perkin Elmer) and tumor growth was monitored using the Perkin Elmer In Vivo Imaging System (IVIS). Treatment groups were assigned on day 9 (FIG. 5A) to ensure each group (n=4) contained tumors of approximately the same size based on luminescence readings. CBD (25 mg/kg) or vehicle (2:1:18 parts ethanol:Tween-80:PBS) treatments by oral gavage were started on day 10 and repeated every alternate day, two hours prior to the beginning of behavioral testing. […] This is consistent with previous studies of CBD treatment in naïve mice. […] (FIG. 5B).
This may indicate less interest in the corner zone and, therefore, less anxiety. […] The effects of CBD treatment in lung cancer can be investigated using additional tests to measure pain (cold plate, Von Frey, conflict avoidance) and endurance (treadmill) to discover how CBD dose and combination with cancer therapies can improve these outcomes.

[3] = tested on: LLC lung cancer cell line; experiment: cells; assay type: cell-based, mouse
[4] = tested on: LLC flank tumor-bearing mice; experiment: Open field test and elevated plus maze in mice with subcutaneous LLC flank tumors after chemotherapy; assay type: in vivo, C57BL/6 mice
Description: FIGS. 4A-4C depict that the behavior of mice is altered by tumor growth and by chemotherapy indicating increased pain and anxiety. C57BL/6 mice were inoculated with 5×105 LLC1 on right flank on Day 0. Cisplatin or Osimertinib were administered in doses of 10 mg/kg by intraperitoneal injection on the days indicated. DMSO+sterile saline was used as a vehicle control. Behavior was assayed using the open field test and EPM according to the timeline depicted in FIG. 4A. The open field (FIG. 4B) and EPM (FIG. 4C) tests were recorded using AnyMaze software to track animal speed, movement, and location. Significant differences between means were determined by ANOVA with Holm Sidack post hoc test p<0.05.
Alterations in behavior in tumor-bearing mice following chemotherapy treatment: To make a preliminary assessment of cancer and chemotherapy-derived symptoms (anxiety, reduced mobility, and pain) in mice, a study was conducted which used the syngeneic Lewis Lung Carcinoma (LLC) model of subcutaneous flank tumors. C57BL/6 mice were injected with 5×10^5 LLC cells on the right flank. Tumor-bearing mice were treated with Cisplatin, Osimertinib, or vehicle, as outlined in FIGS. 5A-5C. The study performed the open field test (a sensory motor test used to measure general activity level) and the elevated plus maze (EPM) (test for anxiety behavior) on tumor-bearing mice throughout the period of tumor growth and treatment (FIG. 4A). In these tests, reduced physical activity was used an indicator of increased pain, and decreases in both distances traveled and time spent mobile over the tumor growth period were observed. […] Overall, the mice spent very little time in the open arms regardless of time point or treatment group making the measure unreliable. […] One limitation of this model is the contribution of tumor location on the hind flank to decreased mobility. To overcome this limitation, future studies can use genetically engineered models of tumor growth in the lungs.

[5] = 25 mg/kg oral gavage every alternate day
[6] = LLC flank tumor mice, 10 mg/kg intraperitoneal

SMILES	IC50 ([1]; Homo sapiens, NCI-H1975, 48 h, read-out: IC50 (μM), cell viability reduction)	IC50 ([1]; Homo sapiens, NCI-H1975, read-out: IC50 of CBD alone (FIG. 2 legend))	Number of entries into the corner zone (open field) [2, 5]	Time mobile in the EPM [2, 5]	Time spent in the center zone (open field) [2, 5]	Time the animal's head was within the open center zone (EPM) [2, 5]	Distance travelled in the open field test ([2]; 25 mg/kg oral gavage every alternate day, initially)	Time mobile in the open field ([2]; 25 mg/kg oral gavage every alternate day, later as tumor growth progressed)	Tumor growth ([2]; CBD alone, 25 mg/kg oral gavage, IVIS luminescence)	IC50 ([3]; Mus musculus, 48 hr, combinations with 10 μM CBD, read-out: IC50 (μM), cell viability reduction)	IC50 ([3]; Mus musculus, n=3, read-out: IC50 of CBD alone (FIG. 2 legend))	IC50 ([1]; H1975, 48 hr, combinations with 10 μM CBD, read-out: IC50 (μM), cell viability reduction)	Anxiety compared to vehicle [4, 6]	Mobility compared to vehicle [4, 6]	Time spent in the open center zone (EPM) compared to vehicle [4, 6]	IC50 ([3]; 48 hr, combinations with 10 μM CBD, read-out: IC50 (μM), cell viability reduction)	IC50 ([1]; Homo sapiens, NCI-H1975, H1975, 48 hr, combinations with 10 μM CBD, read-out: IC50 (μM), cell viability reduction)	Anxiety compared to vehicle ([4]; mouse, in vivo, ip, 10 mg/kg)
C=C(C)[C@@H]1CCC(C)=C[C@H]1c1c(O)cc(CCCCC)cc1O [CBD, Cannabidiol]	19.5 µM	21 µM	trending decrease	significant increases	significant increases	significant increases	no significant change	significant increases	significant reduction in tumor growth using CBD alone was not observed	19 µM	14.5 µM							
N.N.[Cl][Pt][Cl] [Cisplatin]												28 µM	increased anxiety	greater reduction in mobility	significantly decreased	3.1 µM		
C=CC(=O)Nc1cc(Nc2nccc(-c3cn(C)c4ccccc34)n2)c(OC)cc1N(C)CCN(C)C [Osimertinib]															significantly decreased		3.7 µM	increased anxiety
